From ChEMBL document CHEMBL4765295, “Synthesis, pharmacological profile and 2D-QSAR studies of curcumin-amino acid conjugates as potential drug candidates” (Eur J Med Chem, 2020)
Values joined by “and” are separate entries in the source; they are usually repeats but may differ in a detail not shown here. Identical values can stand only once.

Assays:
[1] = tested on: Rattus norvegicus; experiment: Antiinflammatory activity in Wistar rat model of carrageenan-induced paw edema assessed as reduction in thickness of paw edema at 10 mg/kg, ip pretreated for 1 hr followed by carrageenan challenge and measured after 1 hr (reference value: 2.41 +/-0.05 mm); type: functional; settings: time 1 hr after carrageenan
[2] = tested on: Rattus norvegicus; experiment: Anti-inflammatory activity in Wistar rat assessed as inhibition of carrageenan-induced paw edema at 10 mg/kg, ip pretreated for 1 hr followed by carrageenan challenge and measured after 1 hr relative to control (reference value: 0.00 +/-0.02 %); type: functional; settings: time 2 hrs
[3] = tested on: Rattus norvegicus; experiment: Antiinflammatory activity in Wistar rat model of carrageenan-induced paw edema assessed as reduction in thickness of paw edema at 10 mg/kg, ip pretreated for 1 hr followed by carrageenan challenge and measured after 2 hrs (reference value: 2.06 +/-0.09 mm); type: functional; settings: time 3 hrs
[4] = tested on: Rattus norvegicus; experiment: Anti-inflammatory activity in Wistar rat assessed as inhibition of carrageenan-induced paw edema at 10 mg/kg, ip pretreated for 1 hr followed by carrageenan challenge and measured after 2 hr relative to control (reference value: 0.00 +/-0.03 %); type: functional; settings: time 3 hrs
[5] = tested on: Rattus norvegicus; experiment: Antiinflammatory activity in Wistar rat model of carrageenan-induced paw edema assessed as reduction in thickness of paw edema at 10 mg/kg, ip pretreated for 1 hr followed by carrageenan challenge and measured after 3 hrs (reference value: 1.79 +/-0.07 mm); type: functional; settings: time 4 hrs
[6] = tested on: Rattus norvegicus; experiment: Anti-inflammatory activity in Wistar rat assessed as inhibition of carrageenan-induced paw edema at 10 mg/kg, ip pretreated for 1 hr followed by carrageenan challenge and measured after 3 hr relative to control (reference value: 0.00 +/-0.1 %); type: functional; settings: time 4 hrs
[7] = tested on: Rattus norvegicus; experiment: Antiinflammatory activity in Wistar rat model of carrageenan-induced paw edema assessed as reduction in thickness of paw edema at 10 mg/kg, ip pretreated for 1 hr followed by carrageenan challenge and measured after 4 hrs (reference value: 1.40 +/-0.10 mm); type: functional; settings: time 5 hrs
[8] = tested on: Rattus norvegicus; experiment: Anti-inflammatory activity in Wistar rat assessed as inhibition of carrageenan-induced paw edema at 10 mg/kg, ip pretreated for 1 hr followed by carrageenan challenge and measured after 4 hr relative to control (reference value: 0.00 +/-0.4 %); type: functional; settings: time 5 hrs
[9] = tested on: Rattus norvegicus; experiment: Antiinflammatory activity in Wistar rat model of carrageenan-induced paw edema assessed as reduction in thickness of paw edema at 10 mg/kg, ip pretreated for 1 hr followed by carrageenan challenge and measured after 24 hrs (reference value: 0.83 +/-0.08 mm); type: functional; settings: time 25 hrs
[10] = tested on: Rattus norvegicus; experiment: Anti-inflammatory activity in Wistar rat assessed as inhibition of carrageenan-induced paw edema at 10 mg/kg, ip pretreated for 1 hr followed by carrageenan challenge and measured after 24 hr relative to control (reference value: 0.00 +/-0.3 %); type: functional; settings: time 25 hrs
[11] = tested on: Rattus norvegicus; experiment: Anti-inflammatory activity in Wistar rat assessed as inhibition of carrageenan-induced paw edema at 10 mg/kg, ip pretreated for 1 hr followed by carrageenan challenge and measured after 4 hr relative to indomethacin; type: functional; settings: time 5 hrs
[12] = Ulcerogenic activity in fasted albino mouse assessed as incidence of gastric ulceration at 10 mg/kg, po for 3 days (reference value: 0 %); type: toxicity, organism-based; settings: in vivo, 72 h, time 3 day
[13] = Ulcerogenic activity in fasted albino mouse assessed as average number of ulcers in gastric mucosa at 10 mg/kg, po for 3 days (reference value: 0); type: toxicity, organism-based; settings: in vivo, 72 h, time 3 day
[14] = Ulcerogenic activity in fasted albino mouse assessed as average severity of ulcers in gastric mucosa at 10 mg/kg, po for 3 days (reference value: 0); type: toxicity, organism-based; settings: in vivo, 72 h, time 3 day
[15] = Ulcerogenic activity in fasted albino mouse assessed as ulcer index in gastric mucosa at 10 mg/kg, po for 3 days (reference value: 0); type: toxicity, organism-based; settings: in vivo, 72 h, time 3 day
[16] = tested on: Splenocyte; experiment: Immunomodulatory activity in Swiss albino mouse splenocytes assessed as cell viability at 10 uM by measuring stimulation index incubated for 72 hrs in presence of mitogenic stimulus phytohaemagglutinin by MTT assay (reference value: 1.00 +/- 0.24); type: functional
[17] = tested on: Splenocyte; experiment: Immunomodulatory activity in Swiss albino mouse splenocytes assessed as cell viability at 10 uM by measuring inhibition of stimulation index incubated for 72 hrs in presence of mitogenic stimulus phytohaemagglutinin by MTT assay relative to indomethacin; type: functional; settings: read-out: Activity
[18] = tested on: Peritoneal macrophage; experiment: Antiinflammatory activity in […] mouse Peritoneal macrophages assessed as reduction in LPS-induced NO production by measuring reduction in stimulation index at 10 uM preincubated for 1 hr followed by LPS stimulation measured after 24 hrs by Griess method (reference value: 27.31 +/- 2.56 uM); type: functional; settings: time 25 hrs
[19] = tested on: Peritoneal macrophage; experiment: Antiinflammatory activity in […] mouse Peritoneal macrophages assessed as inhibition of LPS-induced NO production at 10 uM preincubated for 1 hr followed by LPS stimulation measured after 24 hrs by Griess method relative to control (reference value: 0.0 %); type: functional; parameters: scale not given: the % may be the effect or the level left; settings: time 25 hrs
[20] = tested on: Mus musculus; experiment: Analgesic activity in albino mouse assessed reduction in acetic acid-induced abdominal writhing by measuring writing reflex at 10 mg/kg, ip pretreated for 1 hr followed by acetic acid challenge and measured starting 5 mins post acetic acid challenge for 10 mins (reference value: 42.4 +/- 1.02); type: functional; settings: time 75 min, 1.25 h
[21] = tested on: Mus musculus; experiment: Analgesic activity in albino mouse assessed protection against acetic acid-induced abdominal writhing at 10 mg/kg, ip pretreated for 1 hr followed by acetic acid challenge and measured starting 5 mins post acetic acid challenge for 10 mins relative to control (reference value: 0 %); type: functional; settings: time 75 min, 1.25 h
[22] = tested on: Mus musculus; experiment: Analgesic activity in albino mouse assessed protection against acetic acid-induced abdominal writhing at 10 mg/kg, ip pretreated for 1 hr followed by acetic acid challenge and measured starting 5 mins post acetic acid challenge for 10 mins relative to indomethacin; type: functional; settings: time 75 min, 1.25 h
[23] = tested on: Mus musculus; experiment: Analgesic activity in albino mouse assessed as forepaw licking/jumping latency time at 10 mg/kg, ip measured after 30 mins by hot plate test (reference value: 5.02 +/- 0.09 sec); type: functional; settings: 0.5 h
[24] = tested on: Mus musculus; experiment: Analgesic activity in albino mouse assessed as protection at 10 mg/kg, ip measured after 30 mins by hot plate test (reference value: 0 %); type: functional; settings: 0.5 h
[25] = tested on: Mus musculus; experiment: Analgesic activity in albino mouse assessed as forepaw licking/jumping latency time at 10 mg/kg, ip measured after 60 mins by hot plate test (reference value: 3.42 +/- 0.03 sec); type: functional; settings: 1 h
[26] = tested on: Mus musculus; experiment: Analgesic activity in albino mouse assessed as protection at 10 mg/kg, ip measured after 60 mins by hot plate test (reference value: 0 %); type: functional; settings: 1 h
[27] = tested on: Mus musculus; experiment: Analgesic activity in albino mouse assessed as forepaw licking/jumping latency time at 10 mg/kg, ip measured after 90 mins by hot plate test (reference value: 2.72 +/- 0.01 sec); type: functional; settings: 1.5 h
[28] = tested on: Mus musculus; experiment: Analgesic activity in albino mouse assessed as protection at 10 mg/kg, ip measured after 90 mins by hot plate test (reference value: 0 %); type: functional; settings: 1.5 h
[29] = tested on: Mus musculus; experiment: Analgesic activity in albino mouse assessed as forepaw licking/jumping latency time at 10 mg/kg, ip measured after 120 mins by hot plate test (reference value: 2.62 +/- 0.06 sec); type: functional; settings: 2 h
[30] = tested on: Mus musculus; experiment: Analgesic activity in albino mouse assessed as protection at 10 mg/kg, ip measured after 120 mins by hot plate test (reference value: 0 %); type: functional; settings: 2 h
[31] = tested on: Mus musculus; experiment: Analgesic activity in albino mouse assessed as protection at 10 mg/kg, ip measured after 120 mins by hot plate test relative to indomethacin; type: functional; settings: 2 h
[32] = tested on: Staphylococcus aureus; experiment: Antibacterial activity against Staphylococcus aureus ATCC 25923 incubated for 18 hrs by agar dilution method; type: functional
[33] = tested on: Streptococcus pyogenes; experiment: Antibacterial activity against Streptococcus pyogenes ATCC 19615 incubated for 18 hrs by agar dilution method; type: functional
[34] = tested on: Salmonella typhimurium; experiment: Antibacterial activity against Salmonella typhimurium ATCC 19430 incubated for 18 hrs by agar dilution assay; type: functional, Salmonella enterica subsp. enterica serovar Typhimurium; settings: Salmonella enterica
[35] = tested on: Pseudomonas aeruginosa; experiment: Antibacterial activity against Pseudomonas aeruginosa ATCC 27853 incubated for 18 hrs by agar dilution assay; type: functional
[36] = tested on: Candida albicans; experiment: Antifungal activity against Candida albicans incubated for 18 to 24 hrs by CLSI method; type: functional; settings: time 18-24 hrs
[37] = Toxicity in albino mouse assessed as induction of toxic symptoms at 50 to 100 mg/kg, ip measured after 24 hrs; type: organism-based; settings: in vivo, dose 50-100 mg/kg
[38] = tested on: A549; experiment: Antiproliferative activity against human A549 cells assessed as inhibition of cell growth after 72 hrs by MTT assay; type: functional, cell-based; settings: A549, 72 h
[39] = tested on: MCF7; experiment: Antiproliferative activity against human MCF7 cells assessed as inhibition of cell growth after 72 hrs by MTT assay; type: functional, cell-based; settings: MCF7, 72 h
[40] = tested on: PC-3; experiment: Antiproliferative activity against human PC3 cells assessed as inhibition of cell growth after 72 hrs by MTT assay; type: functional, cell-based; settings: PC-3, 72 h

Structure (SMILES) | Activity [1] | inhibition in vivo at 10 mg/kg [2] | Activity [3] | inhibition in vivo at 10 mg/kg [4] | Activity [5] | inhibition in vivo at 10 mg/kg [6] | Activity [7] | inhibition in vivo at 10 mg/kg [8] | Activity [9] | inhibition in vivo at 10 mg/kg [10] | inhibition in vivo at 10 mg/kg [11] | Activity_index [16] | viability at 10 µM [17] | Activity [18] | Activity [19] | MIC [32] | MIC [33] | MIC [34] | MIC [35] | MIC [36] | further results
COc1cc(/C=C/C(=O)/C=C(O)/C=C/c2ccc(OC(=O)[C@H](CCSC)NC(=O)OC(C)(C)C)c(OC)c2)ccc1OC(=O)[C@H](CCSC)NC(=O)OC(C)(C)C | 1.59 mm | 34% | 1.31 mm | 36% | 1.01 mm | 44% | 0.17 mm | 88% | 0.64 mm | 23% | 101% | 1.37 | 88.5% | 16.16 µM | 40.84% | 2 µg/mL and 2.41 µM | 2 µg/mL and 2.41 µM | 2 µg/mL and 2.41 µM | 1 µg/mL and 1.2 µM | 1 µg/mL and 1.2 µM | Activity [12]: 0%; Activity [13]: 0; Activity [14]: 0; UI [15]: 0; Activity [20]: 12.3; Activity [21]: 71%; Activity [22]: 115.3%; Time [23]: 5.74 s; Activity [24]: 14.3%; Time [25]: 5.84 s; Activity [26]: 70.8%; Time [27]: 4.26 s; Activity [28]: 56.6%; Time [29]: 3.86 s; Activity [30]: 47.3%; Activity [31]: 112.6%; Activity [37]: Non-Toxic
COc1cc(/C=C/C(=O)/C=C(O)/C=C/c2ccc(OC(=O)C(C)N)c(OC)c2)ccc1OC(=O)C(C)N.Cl.Cl (stereo not drawn) | 1.11 mm | 54% | 0.94 mm | 54% | 0.81 mm | 55% | 0.22 mm | 84% | 0.6 mm | 28% | 97% | 1.91 | 63.2% | 19.75 µM | 27.69% | 0.125 µg/mL and 0.214 µM | 0.25 µg/mL and 0.428 µM | 0.25 µg/mL and 0.428 µM | 0.5 µg/mL and 0.857 µM | 1 µg/mL and 1.71 µM | IC50 [38]: 22.2 µM; IC50 [39]: 9.79 µM; IC50 [40]: 21.7 µM
COc1cc(/C=C/C(=O)/C=C(O)/C=C/c2ccc(OC(=O)[C@H](C)N)c(OC)c2)ccc1OC(=O)[C@H](C)N.Cl.Cl | 1.51 mm | 37% | 1.19 mm | 42% | 0.85 mm | 53% | 0.47 mm | 66% | 0.7 mm | 16% | 76% | 1.14 | 106% | 14.68 µM | 46.24% | 0.5 µg/mL and 0.857 µM | 0.5 µg/mL and 0.857 µM | 0.5 µg/mL and 0.857 µM | 0.25 µg/mL and 0.428 µM | 0.5 µg/mL and 0.857 µM | IC50 [38]: 21.7 µM; IC50 [39]: 10.7 µM; IC50 [40]: 31.5 µM
